Results published in patent publication US20220009914A1, “Analogs of Nitrofuran Antibiotics to Combat Resistance” (The Trustees of Indiana University, priority 2020, published 2022).
Where two headings read alike, the source gives them in different places.

Legend:
[1] = test system: Klebsiella pneumoniae strain NCTC 9633 (ATCC #13883); experiment: bacterial proliferation assay, K. pneumoniae; type: cell-based; details: for EC50: Klebsiella pneumoniae, read-out: Bacterial Proliferation EC50 K. pneumoniae
Description: (§1) All compounds were evaluated for inhibiting the proliferation of E. coli and each of the ESKAPE bacteria. Results presented represent the averages of EC50 values obtained from at least four replicates. Evaluating compounds for inhibition of bacterial cell proliferation.
(§2) Growth Media: E. coli were grown with LB medium and all ESKAPE bacteria were grown in Brain Heart Infusion (BHI) medium (Becton, Dickinson and Company), with all liquid cultures supplemented with 25 mg/L Ca^2+ and 12.5 mg/L Mg^2+ to mimic physiological free concentrations of these cations. A 10 mg/mL Ca^2+ stock solution was prepared by dissolving 1.84 g of CaCl2.2H2O in 50 mL of deionized water, and a 10 mg/mL Mg^2+ stock solution was prepared by dissolving 4.18 g of MgCl2.6H2O in 50 mL deionized water—filter sterilized using 0.2 μm cellulose-acetate filters. 2.5 mL of the sterile 10 mg/mL Ca^2+ stock and 1.25 mL of the sterile 10 mg/mL Mg^2+ stock solutions were added per 1 L of autoclaved LB or BHI media to obtain 25 mg/L Ca^2+ and 12.5 mg/L Mg^2+ ions, respectively.
(§3) General Assay Protocol: Stock bacterial cultures were streaked onto LB or BHI agar plates and grown overnight at 37° C. Fresh aliquots of cation supplemented media were inoculated with single bacterial colonies and the cultures were grown overnight at 37° C. with shaking (240 rpm). The following morning, cultures were diluted 10-fold into fresh media and grown at 37° C. until bacteria had reached mid-log phase growth (OD600˜0.4-0.6). The cultures were then diluted into fresh media to achieve final OD600 readings of 0.017. Aliquots of these diluted cultures (30 μL) were added to clear, flat-bottom 384-well polystyrene plates that were previously stamped with 0.5 μL of test compounds in 20 μL of media (yielding initial OD600=0.01 bacterial cultures). All compounds were tested in dose-response with concentration ranges during the proliferation assays from 100 μM to 46 nM (3-fold dilution series). A second set of baseline control plates were prepared analogously, but without any bacteria added, to correct for possible compound absorbance and/or precipitation. […] Plates were then read at 600 nm using a Molecular Devices SpectraMax Plus384 microplate reader. […] Results presented represent the averages of EC50 values obtained from at least four replicates.
(§4) Evaluating analogs for inhibiting the growth of E. coli and the ESKAPE bacteria. Analogs were initially tested for antibacterial efficacy against representative strains of antibiotic-sensitive E. coli and the ESKAPE bacteria. To determine compound efficacy, bacterial proliferation assays were carried out in liquid media culture supplemented with physiological concentrations of free calcium and magnesium cations. For these assays, bacterial cultures (OD600=0.01) were exposed to test compounds in 8-point, 3-fold dilution series (100 μM to 46 nM concentration range), in 384-well plates. After addition of compounds to cultures, the plates were sealed with Breathe-Easy gas permeable membranes and allowed to grow to mid-log phase (OD600˜0.4-0.6), whereupon final OD600 readings were taken to assess for bacterial growth and inhibition.

E. coli GroEL/ES = target: T1, E. coli GroEL/ES (Escherichia coli, UniProt P0A6F5); experiment: GroEL/ES-mediated dMDH refolding assay; type: biochemical
T1 construct: made in house; host or cells: GroEL in NEB 5-alpha E. coli; GroES in E. coli BL21 (DE3)
Description: Evaluating compounds for inhibition in the GroEL/ES-mediated dMDH refolding assay. All compounds were evaluated for inhibiting E. coli GroEL/ES-mediated refolding of the denatured MDH reporter enzyme. Reagent preparation: For these assays, four primary reagent stocks were prepared: 1) GroEL/ES-dMDH binary complex stock; 2) ATP initiation stock; 3) EDTA quench stock; 4) MDH enzymatic assay stock. Denatured MDH (dMDH) was prepared by 2-fold dilution of MDH (5 mg/ml, soluble pig heart MDH from Roche, product #10127248001) with denaturant buffer (7 M guanidine-HCl, 200 mM Tris, pH 7.4, and 50 mM DTT). MDH was completely denatured by incubating at room temperature for >45 min. The binary complex solutions were prepared by slowly adding the dMDH stock to a stirring stock with GroEL and GroES in folding buffer (50 mM Tris-HCl, pH 7.4, 50 mM KCl, 10 mM MgC2, and 1 mM DTT). […] For the ATP initiation stock, ATP solid was diluted into folding buffer to a final concentration of 2.5 mM. Quench solution contained 600 mM EDTA (pH 8.0). The MDH enzymatic assay stock consisted of 20 mM sodium mesoxalate and 1.6 mM NADH in reaction buffer (50 mM Tris-HCl, pH 7.4, 50 mM KCl, and 1 mM DTT).
Assay Protocol: First, 30 μL aliquots of the GroEL/ES-dMDH binary complex stocks were dispensed into clear, 384-well polystyrene plates. […] The chaperonin-mediated refolding cycles were initiated by addition of 20 μL of ATP stock (reagent concentrations during refolding cycle: 50 nM GroEL, 60 nM GroES, 12 nM dMDH, 1 mM ATP, and compounds of 100 μM to 46 nM, 3-fold dilution series) and the refolding reactions were incubated at 37° C. […] Next, the assay was quenched by addition of 10 μL of the EDTA stock to give a final concentration of 100 mM in the wells. […] A340 nm measurements were recorded at 0.5 minutes (start point) and at successive time points until the amount of NADH consumed reached ˜90% (end point, generally between 20-35 minutes).
Evaluating analogs for inhibiting GroEL/ES-mediated substrate refolding functions. […] We first evaluated all test compounds in our standard GroEL/ES-mediated refolding assays that employ either malate dehydrogenase (MDH) or rhodanese (Rho) as the denatured substrate reporter enzymes. When denatured, these enzymes are efficiently folded by GroEL/ES in the absence of inhibitors, and thus act as reporters to determine the degree of inhibition against the bacterial chaperonin system. Inhibition was examined in the presence of these two orthogonal substrates in order to support that GroEL/ES inhibitors were on-target. To further support on-target effects against GroEL/ES, we counter-screened for inhibition of the native MDH and Rho enzymatic reporter reactions, where test compounds were added after the denatured MDH and Rho substrate enzymes were completely refolded by GroEL/ES.

[2] = test system: Enterobacter cloacae strain CDC 442-68 (ATCC #13047); experiment: bacterial proliferation assay, E. cloacae; type: cell-based; details: ATCC13047, read-out: Bacterial Proliferation EC50 E. cloacae
Description: as §1, §2, §3, §4

T1 sequence (P0A6F5 2-548): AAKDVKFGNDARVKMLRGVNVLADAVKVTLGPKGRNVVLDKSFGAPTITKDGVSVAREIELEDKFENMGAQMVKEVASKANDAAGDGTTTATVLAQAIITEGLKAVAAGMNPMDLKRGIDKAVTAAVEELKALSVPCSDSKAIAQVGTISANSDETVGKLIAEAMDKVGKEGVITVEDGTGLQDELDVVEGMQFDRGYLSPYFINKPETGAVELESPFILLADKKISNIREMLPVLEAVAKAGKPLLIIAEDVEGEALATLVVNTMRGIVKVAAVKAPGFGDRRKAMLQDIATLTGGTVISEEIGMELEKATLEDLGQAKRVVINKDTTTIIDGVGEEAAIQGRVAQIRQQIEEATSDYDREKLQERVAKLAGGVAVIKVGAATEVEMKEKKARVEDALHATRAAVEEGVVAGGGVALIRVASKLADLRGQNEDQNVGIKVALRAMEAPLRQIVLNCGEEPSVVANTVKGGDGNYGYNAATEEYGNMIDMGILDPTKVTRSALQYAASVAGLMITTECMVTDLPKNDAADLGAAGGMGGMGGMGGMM

| SMILES | EC50 [1] [µM] | IC50 (E. coli GroEL/ES) [µM] | EC50 [2] [µM] | inhibition of K. pneumoniae in words [1] | IC50 (E. coli GroEL/ES; without NfsB nitroreductase, read-out: GroEL/ES-dMDH Refolding IC50) [µM] |
| --- | --- | --- | --- | --- | --- |
| O=C(N/N=C/c1ccc([N+](=O)[O-])o1)c1cccc(Oc2ccccc2)c1 [Compound 24, N′-((5-nitrofuran-2-yl)methylene)-3-phenoxybenzohydrazide] | > 100 | 71 | > 100 |  |  |
| COc1ccc(C(=O)NN)cc1 [Compound 42, reference compound] | > 100 | > 100 | > 100 |  |  |
| O=C(N/N=C/c1ccc([N+](=O)[O-])o1)c1ccc(Cl)s1 [Compound 17, 5-chloro-N′-((5-nitrofuran-2-yl)methylene)thiophene-2-carbohydrazide] | 19 |  | 49 | moderate inhibitors | 88 |
| COc1ccc(C(=O)N/N=C/c2ccc(O)c3ccccc23)cc1 [Compound 29, N′-((4-hydroxynaphthalen-1-yl)methylene)-4-methoxybenzohydrazide] | > 100 | > 100 | > 100 |  |  |
| O=C(N/N=C/c1ccc(O)c2ncccc12)c1ccccc1Oc1ccccc1 [Compound 10, N′-((8-hydroxyquinolin-5-yl)methylene)-2-phenoxybenzohydrazide] | > 100 | 15 | > 100 |  |  |
| O=C(N/N=C/c1ccc([N+](=O)[O-])o1)c1cccs1 [Compound 16, N′-((5-nitrofuran-2-yl)methylene)thiophene-2-carbohydrazide] | 16 |  | 40 | moderate inhibitors |  |
| O=C(N/N=C/c1ccc([N+](=O)[O-])o1)c1cccc2ccccc12 [Compound 22, N′-((5-nitrofuran-2-yl)methylene)-1-naphthohydrazide] | > 100 | 82 | > 100 |  |  |
| O=C(N/N=C/c1ccc([N+](=O)[O-])o1)c1ccccc1Oc1ccccc1 [Compound 23, N′-((5-nitrofuran-2-yl)methylene)-2-phenoxybenzohydrazide] | > 100 |  | > 100 |  |  |
| O=C(N/N=C/c1ccc([N+](=O)[O-])o1)c1ccccc1 [Compound 18, N′-((5-nitrofuran-2-yl)methylene)benzohydrazide] | 36 |  | > 100 |  |  |
| O=C(N/N=C/c1ccc([N+](=O)[O-])o1)c1ccncc1 [Compound 19, N′-((5-nitrofuran-2-yl)methylene)isonicotinohydrazide] | 42 |  | 73 |  |  |
| O=C(N/N=C/c1ccc(O)c2ncccc12)c1ccc(Cl)s1 [Compound 4, 5-chloro-N′-((8-hydroxyquinolin-5-yl)methylene)thiophene-2-carbohydrazide] | > 100 | 9.6 | > 100 |  |  |
| O=C1CN(/N=C/c2ccc([N+](=O)[O-])o2)C(=O)N1 [Nitrofurantoin, reference compound] | 40 |  | 36 |  |  |
| O=C(N/N=C/c1ccc(O)c2ncccc12)c1ccc(NS(=O)(=O)c2cccs2)cc1 [Compound 13, N-(4-(2-((8-hydroxyquinolin-5-yl)methylene)hydrazine-1-carbonyl)phenyl)thiophene-2-sulfonamide] | > 100 | 3.2 | > 100 |  |  |
| CCN(CC)S(=O)(=O)c1cccc(C(=O)N/N=C/c2ccc(O)c3ncccc23)c1 [Compound 12, N,N-diethyl-3-(2-((8-hydroxyquinolin-5-yl)methylene)hydrazine-1-carbonyl)benzenesulfonamide] | > 100 | 19 | > 100 |  |  |
| O=C(N/N=C/c1ccc(O)c2ccccc12)c1ccccc1 [Compound 30, N′-((4-hydroxynaphthalen-1-yl)methylene)benzohydrazide] | > 100 | > 100 | > 100 |  |  |
| COc1ccc(C(=O)N/N=C/c2cccc3ncccc23)cc1 [Compound 31, 4-methoxy-N′-(quinolin-5-ylmethylene)benzohydrazide] | > 100 | > 100 | > 100 |  |  |
